Publication PMC5459885, “Relaxin-Family Peptide Receptors 1 and 2 Are Fully Functional in the Bovine” (Frontiers in Physiology, 2017)
“Also recorded” adds a separate entry of the source.

Tests used:
[1] = tested on: bRXFP2; test: cAMP production, HEK293T cells transiently transfected with bRXFP2; assay type: cell-based, bovine; conditions: for stimulation of cAMP production: bRXFP2 (Figure 9B, Table 1); for EC50: bRXFP2, transient transfection HEK293T, 20 min stimulation, cAMP by TRFIA, three-parameter non-linear regression, pRLN converted to nM assuming MW 6 kD and purity 85%
Excerpt: (§1) Preliminary studies, prior to the publication of the bovine genome project, had employed heterologous RT-PCR primers, derived from human sequence information, together with RNA from selected bovine tissues. Initial sequence information obtained was subsequently fully confirmed by the bovine genome project, which is used here for reference. Having confirmed by RT-PCR the correct sequences for the full-length functional bRXFP1 and bRXFP2 transcripts, expression constructs were generated, whereby the signal peptides of the two receptor sequences were replaced by the signal peptide-encoding sequence from the bovine prolactin gene, together with an intermediate short FLAG sequence, exactly as used previously for the expression of the human RXFP1 and RXFP2, and other G-protein coupled receptors (Hsu et al., [2000], [2002]). The two final bovine constructs were generated from assembled multiple oligonucleotides (custom gene synthesis by GeneArt, Regensburg, Germany), their sequences confirmed, and inserted into the vector pcDNA3.1/Zeo(+) (Invitrogen) for expression.
(§2) For transfection, the Neon electroporation system (Invitrogen) was used: the bRXFP1 or bRXFP2 expression plasmids were mixed with HEK 293T cells in a ratio of ~0.2 μg DNA/50,000 cells/well (48-well plate), and pulsed at 1,300 V for 30 ms to transfect the DNA into the cells. Plasmids were allowed to express for 24 h with the transfected cells cultured in DMEM/F12 (1:1) at 37°C with 5% CO2. In parallel, HEK 293T cells which had been permanently transfected with human RXFP1 or human RXFP2 (Heng et al., [2008]) were plated at 50,000 cells/well in a 48-well plate, and cultured overnight in DMEM/F12 (1:1) with 10% bovine fetal serum, 2 mM L-glutamine and 1% Penicillin-Streptomycin at 37°C with 5% CO2.
(§3) For the transient and permanently transfected HEK 293T cells and the primary myometrial (6,000 cells/well) and theca cells (20,000 cells/well), after the initial pre-culture period (as above) medium was changed and supplemented or not with 1 mM IBMX (3-isobutyl-1-methylxanthine; Sigma) as indicated (30 min for myometrial cells, 10 min for theca cells). Following this pre-incubation, cells were supplemented or not with various peptides, also as indicated in the figure legends, and incubation continued for a further 20 min. Total cAMP was extracted from the combined cells and culture medium from each well and measured by time-resolved fluorescent immunoassay (TRFIA) as described in Anand-Ivell et al. ([2007]). cAMP production by the transfected HEK 293 cells was measured directly (range1–243 pmol/ml); cAMP from primary myometrial and theca cells made use of the more sensitive TRFIA employing sample acetylation (detection range 0.04–9.72 pmol/ml).
(§4) All data were analyzed and plotted using GraphPad Prism 6. The EC50 values were calculated by non-linear regression of log (agonist) against response (three parameter). All column data were analyzed by ANOVA followed by Neuman-Keuls post-hoc test.

[2] = tested on: hRXFP1; test: cAMP production, HEK 293T cells permanently transfected with hRXFP1; assay type: cell-based, human; conditions: hRXFP1, permanently transfected HEK 293T, 20 min stimulation, cAMP by TRFIA, three-parameter non-linear regression, pRLN converted to nM assuming MW 6 kD and purity 85%
Method: as §2, §3, §4

[3] = tested on: bovine myometrial cells; test: cAMP production in primary bovine myometrial cells; assay type: cell-based; conditions: 20 min, 1 mM IBMX (Figure 8A)
Method: Bovine tissues were obtained from the local slaughterhouse. Tissue collection was in accordance with German, British and European laws and provisions for ethical regulation. Cumulus-oocyte complexes (COCs) were collected and categorized exactly as in Janowski et al. ([2012]). For oocyte RNA preparation, COCs were mechanically denuded using a glass pipette followed by a 2 min trypsin incubation (1x Trypsin-EDTA solution; T4174; Sigma, Deisenhofen, Germany) to remove residual cumulus cells, then frozen at −80°C. Bovine myometrial cells were prepared from excised uteri exactly as in Heng et al. ([2008]). The isolated myometrial cells were plated at 6,000 cells/well in a 48-well plate and cultured at 37°C with 5% CO2 for 5 days before stimulation. Bovine ovaries without an obvious corpus luteum were selected for the isolation of granulosa and theca interna cells from mid-phase antral follicles (ca. 6–10 mm diameter) using standard procedures (Holtorf et al., [1989]; Bathgate et al., [1999]). Follicular fluid, including COCs and granulosa cells, was aspirated from the follicles, and collected in granulosa culture medium (DMEM/F-12 (1:1) with 1% bovine fetal serum, 1% antibiotic-antimycotic (ABAM), 2 mM L-glutamine). After manually removing the COCs, the granulosa cells were harvested by centrifugation (150 g, 10 min) and rinsed once with culture medium as above. Four to six millimeters follicles were obtained by dissection. The theca interna layer of mid-phase antral follicles was peeled off and digested with collagenase IV (1 mg/ml) in Medium 199, including trypsin inhibitor (100 μg/ml) at 38°C for 1 h. The isolated theca cells were collected and washed in Medium 199 with 1% ABAM. […]
as §3, with “Following this pre-incubation, cells were supplemented or not with various peptides, also as indicated in the figure legends, and incubation continued for a further 20 min.” left out
as §4

[4] = tested on: bRXFP1; test: cAMP production, HEK293T cells transiently transfected with bRXFP1; assay type: cell-based, bovine; conditions: for EC50: bRXFP1, transient transfection HEK293T, 20 min stimulation, cAMP by TRFIA, three-parameter non-linear regression, pRLN converted to nM assuming MW 6 kD and purity 85%, bINSL3 curve had not reached an asymptote at highest concentration; for stimulation of cAMP production: bRXFP1, within the range of concentration applied (Figure 9A)
Excerpt: as §1, §2, §3, §4

[5] = tested on: beef cows; conditions: applied locally or systemically to beef cows at term; ref Musah et al., 1987; cited from earlier work
Excerpt: (§5) For many years there has been a controversy surrounding the existence or not of relaxin in ruminants, including cattle, sheep, and goats (Hartung et al., [1995]). A RLN2 homologous molecule is definitely expressed at the mRNA and/or protein levels in related ungulates, such as pigs, camels, llamas, and horses (James et al., [1977]; Stewart et al., [1991]; Bravo et al., [1996]; Hombach-Klonisch et al., [2000]; ncbi database: www-ncbi-nlm-nih-gov).

[6] = tested on: bovine luteal cells; conditions: bovine luteal cells in culture; ref Musah et al., 1990; cited from earlier work
Excerpt: as §5

[7] = tested on: hRXFP2; test: cAMP production, HEK 293T cells permanently transfected with hRXFP2; assay type: cell-based, human; conditions: for EC50: hRXFP2, permanently transfected HEK 293T, 20 min stimulation, cAMP by TRFIA, three-parameter non-linear regression, pRLN converted to nM assuming MW 6 kD and purity 85%, its curve had not reached an asymptote at highest concentration
Method: as §2, §3, §4

[8] = tested on: bovine sperm; conditions: ref Miah et al., 2011; cited from earlier work
Excerpt: as §5

[9] = tested on: RXFP1; conditions: ref Bathgate et al., 2006; cited from earlier work
Excerpt: The relaxin family of peptide hormones includes, besides relaxin (RLN2), also relaxin 3 (RLN3), insulin-like peptide 3 (INSL3), INSL5, and INSL6. Additionally, within higher primates and humans there is RLN1 and INSL4. […] RLN2 and INSL3 on the other hand are usually expressed in reproductive tissues of both sexes and ...

[10] = tested on: bovine theca cells; test: cAMP production in primary bovine theca cells; assay type: cell-based; conditions: 20 min, 1 mM IBMX (Figure 8B,C)
Method: Bovine tissues were obtained from the local slaughterhouse. Tissue collection was in accordance with German, British and European laws and provisions for ethical regulation. Cumulus-oocyte complexes (COCs) were collected and categorized exactly as in Janowski et al. ([2012]). For oocyte RNA preparation, COCs were mechanically denuded using a glass pipette followed by a 2 min trypsin incubation (1x Trypsin-EDTA solution; T4174; Sigma, Deisenhofen, Germany) to remove residual cumulus cells, then frozen at −80°C. Bovine myometrial cells were prepared from excised uteri exactly as in Heng et al. ([2008]). […]
as §3, with “Following this pre-incubation, cells were supplemented or not with various peptides, also as indicated in the figure legends, and incubation continued for a further 20 min.” left out, “pmol/ml). […]” for “pmol/ml).”

Molecule	stimulation of cAMP production [1]	EC50 [1] [nM]	EC50 [2] [nM]	cAMP production [3]	EC50 [4] [nM]	stimulation of cAMP production [4]	EC50 [7] [nM]	further results
porcine relaxin [pRLN]	could stimulate at very high concentration	10.5	0.4	significant stimulation was observed at all concentrations applied	10.8	showed any stimulation within the range of concentration applied	> 12	EC50 ([2]; listed as porcine RLN): < 1 nM; softening and dilatation response [5]: elicited a classic softening and dilatation response, thereby influencing calving period; oxytocin production [6]: significantly suppressed oxytocin production
recombinant human relaxin [rhRLN]	could stimulate at very high concentration	27.3	0.9		48.7	showed any stimulation within the range of concentration applied	53.9	EC50 ([2]; listed as human RLN): < 1 nM
relaxin				significant increase in cAMP				sperm functional parameters [8]: significantly to affect bovine sperm functional parameters
relaxin 3 [hRLN3]	unable to stimulate		14.6		97.9	showed any stimulation within the range of concentration applied		affinity at RXFP1 [9]: reduced affinity; stimulation of cAMP production ([1]; listed as RLN3): but not RLN3, could stimulate at very high concentration; stimulation of cAMP production ([7]; hRXFP2 (Table 1)): unable to stimulate
bovine INSL3 (protein, UniProt O77801 22-66; O77801 27-66; O77801 107-132, looked up, bovine insulin-like peptide 3, cognate ligand of bovine RXFP2) Insulin-like 3 B' chain: GPAAAQEAPEKLCGHHFVRALVRLCGGPRWSSEEDGRPVAGGDRE Insulin-like 3 B chain: QEAPEKLCGHHFVRALVRLCGGPRWSSEEDGRPVAGGDRE Insulin-like 3 A chain: ATAINPARHCCLSGCTRQDLLTLCPH	effective at low concentrations	0.7					0.6	cAMP production [10]: dose-dependent increase in cAMP; also recorded: able significantly to stimulate cAMP production in a dose-dependent manner; EC50 ([1]; listed as bovine INSL3): < 1 nM; cAMP production ([3]; listed as INSL3): significant increase in cAMP; cAMP production ([3]; listed as bovine INSL3): significant stimulation was observed at all concentrations applied
human INSL3 (protein, UniProt P51460 21-55; P51460 106-131, looked up, human insulin-like peptide 3) Insulin-like 3 B chain: LGPAPTPEMREKLCGHHFVRALVRVCGGPRWSTEA Insulin-like 3 A chain: AAATNPARYCCLSGCTQQDLLTLCPY		0.6					0.7	
